From ChEMBL document CHEMBL1144929, “Determination of conformer-specific partition coefficients in octanol/water systems” (J Med Chem, 2003)

Experiments:
Type in all cases: physicochemical
[1] = Partition coefficient (logP); conditions: octanol/water
[2] = Partition coefficient of g-rotamer in octanol water system
[3] = Partition coefficient of t-rotamer in octanol water system
[4] = Partition coefficient of h-rotamer in octanol water system

CC(C)(C)NCC(O)c1cc(Cl)c(N)c(Cl)c1 (centres undefined) [CLENBUTEROL]
logP [1]: 2.71
logP [2]: 2.14
logP [3]: 2.87
logP [4]: 2.57
